These results are taken from PMC3598007, “Interactions of zebrafish peptide YYb with the neuropeptide Y-family receptors Y4, Y7, Y8a, and Y8b” (Frontiers in Neuroscience, 2013).

“Also recorded” adds a separate entry of the source. No end group written: not given here.

Experiment [1] has as its system Y2. The conditions noted are these: mammals; PYY3-36 formed by dipeptidyl peptidase IV cleavage; ref Mentlein et al., 1993; cited from earlier work. The source says: Studies of how NPY affects appetite have been conducted in several fish species (Narnaware et al., [2000]; Narnaware and Peter, [2001]) and the NPY system seems to influence food intake, although the orexigenic receptor subtypes have not been identified in the fish species studied. The receptors that in mammals are involved in inhibition of appetite have been known in zebrafish for several years and there have been some studies investigating how PYY can inhibit feeding. In mammals it seems like the main inhibitory action on appetite is performed by PYY3-36. This peptide is the result of cleava ...

Another experiment concerns Y4(Ya). The experiment can be described thus: Competition binding with 125I-pPYY, zebrafish Y4 receptor (HEK cells). The conditions noted are these: transiently expressed in HEK cells, competition with 125I-pPYY, 25 mM HEPES pH 7.4, 2.5 mM CaCl2, 1 mM MgCl2, bacitracin, 2 h incubation, mean ± SEM, n = 3 (zfNPY), 3 (zfPYYa), 3 (zfPYYb). An excerpt: (§1) The zebrafish receptors have previously been cloned and expressed in cell lines by our laboratory. The zebrafish Y8a and Y8b receptors were inserted in a pTEJ-8 vector and stably expressed in CHO-cells (Ringvall et al., [1997]; Berglund et al., [2000]). Y7 has been inserted in a pCEP4 vector and semi-stably expressed in HEK 293-EBNA cells (Fredriksson et al., [2004]). The zebrafish Y4 receptor coding region was inserted in a pTEJ-8 vector (Starback et al., [1999]) and transient expressed in HEK cells. The cell-lines were grown according to the recommendations of the manufacturer. Ninety percent of the confluent cells were harvested and mixed with 100 μl 25 mM HEPES buffer (pH 7.4 and 2.5 mM CaCl2 and 1 mM MgCl2) and stored at −80°C.
(§2) Thawed aliquots of transfected cells were mixed with 1 ml 25 mM HEPES buffer (pH 7.4, 2.5 mM CaCl2, 1 mM MgCl2 and 0.2 g/l bacitracin). The samples were homogenized and another 1 ml buffer was added. ^125I-pPYY was used as radioligand in all experiments, radioligand, and unlabeled ligands (serial concentrations of zfNPY, zfPYYa, and zfPYYb respectively) and cells were mixed at the proportion 2:1:1 in 100 μl reactions followed by 2 h incubation. […] The radioactivity was measured using a Wallac 1450 Betaplate counter and the results were analyzed using Prism 4.0 software package (GraphPad, San Diego, CA, USA). […]

A further experiment has as its system Y7. The experiment can be described thus: Competition binding with 125I-pPYY, zebrafish Y7 receptor (HEK 293-EBNA cells). The settings on record: for Ki: zebrafish Y7, semi-stably expressed in HEK 293-EBNA cells, competition with 125I-pPYY, 25 mM HEPES pH 7.4, 2.5 mM CaCl2, 1 mM MgCl2, bacitracin, 2 h incubation, mean ± SEM, n = 5 (zfNPY), 3 (zfPYYa), 5 (zfPYYb).
From the text: as §1
Thawed aliquots of transfected cells were mixed with 1 ml 25 mM HEPES buffer (pH 7.4, 2.5 mM CaCl2, 1 mM MgCl2 and 0.2 g/l bacitracin). The samples were homogenized and another 1 ml buffer was added. ^125I-pPYY was used as radioligand in all experiments, radioligand, and unlabeled ligands (serial concentrations of zfNPY, zfPYYa, and zfPYYb respectively) and cells were mixed at the proportion 2:1:1 in 100 μl reactions followed by 2 h incubation. The zebrafish NPY (zfNPY) and PYYa (zfPYYa) were synthesized at Eli Lilly and Company. The zebrafish PYYb (zfPYYb) was supplied in a crude form by GL Biochem Shanghai and purified as previously described (Fredriksson et al., [2006]). The incubation was terminated by rapid filtration through GF/C filters pre-soaked in 0.3% polyethyleneimin, using a TOMTEC cell harvester (Orange, CT, USA). The filters were washed with 50 mM Tris-HCl (pH 7.4) and dried at 50°C for 30 min. Filters were treated with MeltiLex A melt on scintillator sheets (Perkin Elmer, Boston, MA, USA). The radioactivity was measured using a Wallac 1450 Betaplate counter and the results were analyzed using Prism 4.0 software package (GraphPad, San Diego, CA, USA). The pKi values were compared to each other using One-Way ANOVA followed by Tukey-Kramer Multiple Comparison Test (GraphPad, San Diego, CA, USA).
The zebrafish receptors were expressed in mammalian cells and the membrane fraction was used for binding experiments. Competition binding experiments were performed using the three endogenous ligands NPY, PYYa and PYYb in competition with iodinated porcine PYY. The mature 36 amino acid PYYb peptide has fourteen differences compared to NPY and seven when compared with PYYa (see Figure 1). PYYa differs from NPY at nine positions. Thus, PYYb has clearly changed more than PYYa after duplication of their common ancestral gene.

The test system of the next experiment is Y8a (Yc). As to the kind of experiment: Competition binding with 125I-pPYY, zebrafish Y8a receptor (CHO-cells).
From the text: as §1, §2

A further experiment relates to Y8b (Yb). As to the kind of experiment: Competition binding with 125I-pPYY, zebrafish Y8b receptor (CHO-cells). The conditions noted are these: stably expressed in CHO-cells, competition with 125I-pPYY, 25 mM HEPES pH 7.4, 2.5 mM CaCl2, 1 mM MgCl2, bacitracin, 2 h incubation, mean ± SEM, n = 4 (zfNPY), 3 (zfPYYa), 4 (zfPYYb).
From the text: as §1, §2

Experiment [2] deals with Y2. The settings on record: zebrafish Y2, ref Fredriksson et al., 2006, cited from earlier work. An excerpt: The neuropeptide Y (NPY) system influences numerous physiological functions including feeding behavior, endocrine regulation, and cardiovascular regulation. In jawed vertebrates it consists of 3–4 peptides and 4–7 receptors. Teleost fishes have unique duplicates of NPY and PYY as well as the Y8 receptor. In the zebrafish, the NPY system consists of the peptides NPYa, PYYa, and PYYb (NPYb appears to have been lost) and at least seven NPY receptors: Y1, Y2, Y2-2, Y4, Y7, Y8a, and Y8b. Previously PYYb binding has been reported for Y2 and Y2-2. To search for peptide-receptor preferences, we have i ... || The main objective of this study was to examine the affinity of PYYb for the Y4, Y7, Y8a, and Y8b receptors, and to compare it to the other two endogenous peptides, NPY and PYYa. […] The zebrafish Y7 receptor is 50% identical to zebrafish Y2 and PYYa has low affinity for both of these. This observation will be interesting to correlate with the physiological roles of the peptides and receptors in z ... || (+ 1 further places)

The subject of the next experiment is Y4. The conditions noted are these: PP, PYY and NPY compared, ref Lundell et al., 1995, 2002; cited from earlier work. An excerpt: Functional and evolutionary studies in mammals have shown that their Y4 receptor has evolved a partnership with pancreatic polypeptide (PP). It should be stressed that PYYb is not the teleost fish ortholog of PP, instead the latter is a tandem duplicate of PYY that probably took place early in the tetrapod lineage. […] Thus, the PP-Y4 preference seems to have evolved in mammals (Lundell et al., [1995], [2002]). One aim of the present study was to investigate ...

As to PYY3-36, the “selectivity for Y2 over the other receptor subtypes” value with Y2 [1] is listed as “selectivity for Y2 over the other receptor subtypes”.
Regarding “zfPYYa: endogenous zebrafish PYYa, synthesized at Eli Lilly and Company”, the Ki (usually a measure of affinity in units of concentration, obtained from inhibition or displacement) was 0.034 ± 0.009 nM in the experiment on Y4(Ya), 1.82 nM in the experiment on Y7 and 0.25 ± 0.12 nM with Y8b (Yb). The “fold lower affinity for Y7 than NPY and PYYb” value in the experiment on Y7 (zebrafish Y7, PYYa vs NPY and PYYb) was determined as 3 fold. Moreover, the “affinity for Y7 compared with NPY and PYYb” value in the experiment with Y7 (zebrafish Y7, pKi compared by One-Way ANOVA, Tukey-Kramer) is on record as “significantly lower affinity; also recorded: low affinity”. Moreover, the “affinity for Y8a compared with the other two peptides” value with Y8a (Yc) (zebrafish Y8a, PYYa vs NPY and PYYb) is recorded as “slightly lower than the other two peptides”. Also, in the experiment on Y2 [2] (previously reported), the “affinity for Y2” value is given as 3 nM. Also, the “preference of Y2 / affinity for Y2” value with Y2 [2] is recorded as “low affinity”.
Turning to “zfNPY: endogenous zebrafish neuropeptide Y, synthesized at Eli Lilly and Company”, the inhibition constant Ki in the experiment with Y4(Ya) stood at 0.033 ± 0.005 nM; in the experiment on Y7 it was 0.57 ± 0.16 nM; in the experiment with Y8a (Yc) (zebrafish Y8a (Yc), stably expressed in CHO-cells, competition with 125I-pPYY, 25 mM HEPES pH 7.4, 2.5 mM CaCl2, 1 mM MgCl2, bacitracin, 2 h incubation, mean ± SEM, n = 7 (zfNPY), 6 (zfPYYa), 4 (zfPYYb)), 0.21 ± 0.07 nM; in the experiment on Y8b (Yb), 0.13 ± 0.04 nM.
Consider “chicken PP: chicken pancreatic polypeptide (GPSQPTYPGDDAPVEDLIRFYNDLQQYLNVVTRHRY; ends and bridges not checked; UniProt P68248 26-61, looked up)”, for which the “affinity for chicken Y4” value in the experiment on Y4 is on record as “equal affinities”.
